Source: patent publication US8592455B2 (priority 2008, dated 2013)
pIC50: −log10 of the molar value.

Legend:
Pim1 kinase = Pim1 kinase (Homo sapiens (Human), UniProt P11309); settings: read-out: Pim1 IC50
Pim3 kinase = Pim3 kinase (Homo sapiens (Human), UniProt Q86V86); settings: read-out: Pim3 IC50

Pim1 kinase, sequence (P11309 whole entry): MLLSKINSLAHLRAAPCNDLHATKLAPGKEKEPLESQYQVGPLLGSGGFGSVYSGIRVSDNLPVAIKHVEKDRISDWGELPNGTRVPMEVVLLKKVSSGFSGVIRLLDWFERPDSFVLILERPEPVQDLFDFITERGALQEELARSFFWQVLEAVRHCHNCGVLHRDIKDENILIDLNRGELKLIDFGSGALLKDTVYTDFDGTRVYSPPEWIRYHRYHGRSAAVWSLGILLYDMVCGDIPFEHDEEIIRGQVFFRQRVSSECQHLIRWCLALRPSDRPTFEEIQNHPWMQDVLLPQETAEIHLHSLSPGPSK

Structure (SMILES)	pIC50 (Pim1 kinase)	pIC50 (Pim3 kinase)
N[C@H]1CCC[C@@H](c2ccncc2NC(=O)c2ccc(F)c(-c3cc(F)cc(F)c3F)n2)C1 [Example 14, N-(4-((1R,3S)-3-aminocyclohexyl)pyridin-3-yl)-5-fluoro-6-(2,3,5-trifluorophenyl)picolinamide]	8.22	7.92
CCc1ccc(F)c(-c2cccc(C(=O)Nc3cnccc3[C@H]3C[C@@H](N)[C@H](O)[C@@H](C)C3)n2)c1F [Example 15, N-(4-((1R,3R,4R,5S)-3-amino-4-hydroxy-5-methylcyclohexyl)pyridin-3-yl)-6-(3-ethyl-2,6-difluorophenyl)picolinamide]	8.52	8.22
CCc1ccc(F)c(-c2cccc(C(=O)Nc3cnccc3[C@H]3C[C@@H](N)[C@@H](O)[C@@H](C)C3)n2)c1F [Example 17, N-(4-((1R,3R,4S,5S)-3-amino-4-hydroxy-5-methylcyclohexyl)pyridin-3-yl)-6-(3-ethyl-2,6-difluorophenyl)picolinamide]	9.00	8.30
CCc1ccc(F)c(-c2cccc(C(=O)Nc3cnccc3[C@@H]3CCC[C@H](N)C3)n2)c1F [Example 19, N-(4-((1R,3S)-3-aminocyclohexyl)pyridin-3-yl)-6-(3-ethyl-2,6-difluorophenyl)picolinamide]	8.52	8.15
Cc1ccc(F)c(-c2nc(C(=O)Nc3cnccc3[C@@H]3CCC[C@H](N)C3)ccc2F)c1F [Example 20, N-(4-((1R,3S)-3-aminocyclohexyl)pyridin-3-yl)-6-(2,6-difluoro-3-methylphenyl)-5-fluoropicolinamide]	9.00	8.52
CCc1ccc(F)c(-c2cccc(C(=O)Nc3cnccc3[C@@H]3C[C@H](C)C[C@H](N)C3)n2)c1F [Example 21, N-(4-((1R,3S,5S)-3-amino-5-methylcyclohexyl)pyridin-3-yl)-6-(3-ethyl-2,6-difluorophenyl)picolinamide]	8.70	8.22
Cc1ccc(F)c(-c2nc(C(=O)Nc3cnccc3N3C[C@@H](N)[C@H](O)[C@@H](C)C3)ccc2F)c1F [Example 22, N-(4-((3R,4R,5S)-3-amino-4-hydroxy-5-methylpiperidin-1-yl)pyridin-3-yl)-6-(2,6-difluoro-3-methylphenyl)-5-fluoropicolinamide]	9.00	8.52
C[C@H]1CN(c2ccncc2NC(=O)c2cccc(-c3ccccc3F)n2)C[C@@H](N)[C@@H]1O [Example 23, N-(4-((3R,4R,5S)-3-amino-4-hydroxy-5-methylpiperidin-1-yl)pyridin-3-yl)-6-(2-fluorophenyl)picolinamide]	8.70	8.52
C[C@H]1CN(c2ccncc2NC(=O)c2nc(-c3c(F)cccc3F)ccc2F)C[C@@H](N)[C@@H]1O [Example 24, N-(4-((3R,4R,5S)-3-amino-4-hydroxy-5-methylpiperidin-1-yl)pyridin-3-yl)-6-(2,6-difluorophenyl)-3-fluoropicolinamide]	9.00	9.00
Cc1ccc(F)c(-c2nc(C(=O)Nc3cnccc3[C@@H]3C[C@H](C)C[C@H](N)C3)ccc2F)c1F [Example 27, N-(4-((1R,3S,5S)-3-amino-5-methylcyclohexyl)pyridin-3-yl)-6-(2,6-difluoro-3-methylphenyl)-5-fluoropicolinamide]	9.00	8.70
Cc1ccc(F)c(-c2cccc(C(=O)Nc3cnccc3[C@@H]3CCC[C@H](N)C3)n2)c1F [Example 28, N-(4-((1R,3S)-3-aminocyclohexyl)pyridin-3-yl)-6-(2,6-difluoro-3-methylphenyl)picolinamide]	9.00	8.70
Cc1ccc(F)c(-c2cccc(C(=O)Nc3cnccc3[C@H]3C[C@@H](N)[C@H](O)[C@@H](C)C3)n2)c1F [Example 30, N-(4-((1R,3R,4R,5S)-3-amino-4-hydroxy-5-methylcyclohexyl)pyridin-3-yl)-6-(2,6-difluoro-3-methylphenyl)picolinamide]	8.70	8.40
Cc1ccc(F)c(-c2cccc(C(=O)Nc3cnccc3[C@H]3C[C@@H](N)[C@@H](O)[C@@H](C)C3)n2)c1F [Example 31, N-(4-((1R,3R,4S,5S)-3-amino-4-hydroxy-5-methylcyclohexyl)pyridin-3-yl)-6-(2,6-difluoro-3-methylphenyl)picolinamide]	8.70	8.40
N[C@H]1CCC[C@@H](c2ccncc2NC(=O)c2ccc(F)c(-c3c(F)cc(O)cc3F)n2)C1 [Example 32, N-(4-((1R,3S)-3-aminocyclohexyl)pyridin-3-yl)-6-(2,6-difluoro-4-hydroxyphenyl)-5-fluoropicolinamide]	9.00	8.52
N[C@H]1CCC[C@@H](c2ccncc2NC(=O)c2ccc(F)c(-c3cc(O)ccc3F)n2)C1 [Example 33, N-(4-((1R,3S)-3-aminocyclohexyl)pyridin-3-yl)-5-fluoro-6-(2-fluoro-5-hydroxyphenyl)picolinamide]	9.00	8.52
N[C@H]1CCC[C@@H](c2ccncc2NC(=O)c2nc(-c3cc(O)ccc3F)ccc2F)C1 [Example 34, N-(4-((1R,3S)-3-aminocyclohexyl)pyridin-3-yl)-3-fluoro-6-(2-fluoro-5-hydroxyphenyl)picolinamide]	8.40	8.22

Structure (SMILES)	pIC50 (Pim1 kinase)	pIC50 (Pim3 kinase)
C[C@@H]1C[C@H](N)C[C@H](c2ccncc2NC(=O)c2cccc(-c3cc(O)ccc3F)n2)C1 [Example 35, N-(4-((1R,3S,5S)-3-amino-5-methylcyclohexyl)pyridin-3-yl)-6-(2-fluoro-5-hydroxyphenyl)picolinamide]	9.00	8.52
C[C@@H]1C[C@H](N)C[C@H](c2ccncc2NC(=O)c2cccc(-c3ccc(O)cc3F)n2)C1 [Example 37, N-(4-((1R,3S,5S)-3-amino-5-methylcyclohexyl)pyridin-3-yl)-6-(2-fluoro-4-hydroxyphenyl)picolinamide]	8.70	8.30
C[C@@H]1C[C@H](N)C[C@H](c2ccncc2NC(=O)c2ccc(F)c(-c3ccc(O)cc3F)n2)C1 [Example 38, N-(4-((1R,3S,5S)-3-amino-5-methylcyclohexyl)pyridin-3-yl)-5-fluoro-6-(2-fluoro-4-hydroxyphenyl)picolinamide]	9.00	8.52
C[C@@H]1C[C@H](N)C[C@H](c2ccncc2NC(=O)c2nc(-c3ccc(O)cc3F)ccc2F)C1 [Example 39, N-(4-((1R,3S,5S)-3-amino-5-methylcyclohexyl)pyridin-3-yl)-3-fluoro-6-(2-fluoro-4-hydroxyphenyl)picolinamide]	8.15	7.92
C[C@@H]1C[C@H](N)C[C@H](c2ccncc2NC(=O)c2nc(-c3cc(O)ccc3F)ccc2F)C1 [Example 43, N-(4-((1R,3S,5S)-3-amino-5-methylcyclohexyl)pyridin-3-yl)-3-fluoro-6-(2-fluoro-5-hydroxyphenyl)picolinamide]	9.00	8.70
COc1ccc(F)c(-c2nc(C(=O)Nc3cnccc3[C@H]3C[C@@H](N)[C@H](O)[C@@H](C)C3)ccc2F)c1F [Example 47, N-(4-((1R,3R,4R,5S)-3-amino-4-hydroxy-5-methylcyclohexyl)pyridin-3-yl)-6-(2,6-difluoro-3-methoxyphenyl)-5-fluoropicolinamide]	9.00	8.52
CC1(C)C[C@H](N)C[C@H](c2ccncc2NC(=O)c2ccc(F)c(-c3c(F)cccc3F)n2)C1 [Example 49, N-(4-((1R,5R)-5-amino-3,3-dimethylcyclohexyl)pyridin-3-yl)-6-(2,6-difluorophenyl)-5-fluoropicolinamide]	9.00	8.70
C[C@@H]1C[C@H](N)C[C@H](c2ccncc2NC(=O)c2nc(-c3c(F)cccc3F)c(F)cc2N)C1 [Example 51, 3-amino-N-(4-((1R,3S,5S)-3-amino-5-methylcyclohexyl)pyridin-3-yl)-6-(2,6-difluorophenyl)-5-fluoropicolinamide]	9.00	9.00
N[C@H]1CCC[C@@H](c2ccncc2NC(=O)c2ccc(F)c([C@H]3CC[C@@H](O)CC3)n2)C1 [Example 53, N-(4-((1R,3S)-3-aminocyclohexyl)pyridin-3-yl)-5-fluoro-6-((1s,4s)-4-hydroxycyclohexyl)picolinamide]	8.00	7.19
N[C@H]1CCC[C@@H](c2ccncc2NC(=O)c2ccc(F)c([C@H]3CC[C@H](O)CC3)n2)C1 [Example 56, N-(4-((1R,3S)-3-aminocyclohexyl)pyridin-3-yl)-5-fluoro-6-((1r,4r)-4-hydroxycyclohexyl)picolinamide]	7.96	6.99
C[C@@H]1C[C@H](N)C[C@H](c2ccncc2NC(=O)c2ccc(F)c(-c3cc(F)ccc3F)n2)C1 [Example 61, N-(4-((1R,3S,5S)-3-amino-5-methylcyclohexyl)pyridin-3-yl)-6-(2,5-difluorophenyl)-5-fluoropicolinamide]	9.00	8.40
C[C@@H]1C[C@H](N)C[C@H](c2ccncc2NC(=O)c2cccc(-c3ccccc3F)n2)C1 [Example 62, N-(4-((1R,3S,5S)-3-amino-5-methylcyclohexyl)pyridin-3-yl)-6-(2-fluorophenyl)picolinamide]	9.00	8.52
C[C@@H]1C[C@H](N)C[C@H](c2ccncc2NC(=O)c2cccc(-c3c(F)cccc3F)n2)C1 [Example 63, N-(4-((1R,3S,5S)-3-amino-5-methylcyclohexyl)pyridin-3-yl)-6-(2,6-difluorophenyl)picolinamide]	9.00	8.70
CCCOc1ccc(F)c(-c2nc(C(=O)Nc3cnccc3[C@@H]3CC[C@H](O)[C@H](N)C3)ccc2F)c1 [Example 64, N-(4-((1R,3R,4S)-3-amino-4-hydroxycyclohexyl)pyridin-3-yl)-5-fluoro-6-(2-fluoro-5-propoxyphenyl)picolinamide]	8.70	8.30
CCCOc1ccc(F)c(-c2nc(C(=O)Nc3cnccc3[C@@H]3CC[C@H](O)[C@H](N)C3)c(N)cc2F)c1 [Example 67, 3-amino-N-(4-((1R,3R,4S)-3-amino-4-hydroxycyclohexyl)pyridin-3-yl)-5-fluoro-6-(2-fluoro-5-propoxyphenyl)picolinamide]	9.00	8.52
